Legend:
Botrytis cinerea = assay: Use Example 2a: activity against gray mold on bell pepper leaves, protective application; format: in vivo; conditions: protective spray 1 day before inoculation, bell pepper seedlings, assessed after 5 days, untreated 90%
Protocol: (§1) The active compounds, separately or jointly, were prepared as a stock solution comprising 25 mg of active compound which was made up to 10 ml using a mixture of acetone and/or DMSO and the emulsifier Uniperol® EL (welting agent having an emulsifying and dispersing action based on ethoxylated alkylphenols) in a ratio by volume of solvent/emulsifier of 99:1. The mixture was then made up to 100 ml with water. This stock solution was diluted with the solvent/emulsifier/water mixture described to give the concentration of active compound stated below. Alternatively, the active compounds were employed as a commercial finished formulation and diluted with water to the stated concentration of active compound.
Activity against gray mold on bell pepper leaves caused by Botrytis cinerea, protective application Bell pepper seedlings of the cultivar “Neusiedler Ideal Elite” were, after 2-3 leaves were well developed, sprayed to runoff point with an aqueous suspension having the concentration of active compound stated below. The next day, the treated plants were inoculated with a spore suspension of Botrytis cinerea which comprised 1.7×10^6 spores/ml in a 2% strength aqueous biomalt solution. The test plants were then placed into a dark climatized chamber at 22-24° C. and high atmospheric humidity. After 5 days, the extent of the fungal infection on the leaves could be determined visually in %.

Puccinia recondita [1] = assay: Use Example 1: curative activity against brown rust of wheat; format: in vivo; conditions: curative spray 1 day after inoculation, wheat cultivar Kanzler, assessed after 7 days, untreated 90%
Protocol: as §1
(§2) Curative Activity Against Brown Rust of Wheat Caused by Puccinia recondita
Leaves of polted wheat seedlings of the cultivar “Kanzler” were inoculated with a spore suspension of brown rust (Puccinia recondita). The pots were then placed into a chamber with high atmospheric humidity (90-95%) at 20-22° C. for 24 hours. During this time, the spores germinated and the germ tubes penetrated into the leaf tissue. The next day, the infected plants were sprayed to runoff point with an aqueous suspension having the concentration of active compound stated below. The suspension or emulsion was prepared as described above. After the spray coating had dried on, the test plants were cultivated in a greenhouse at temperatures between 20 and 22° C. and at 65 to 70% relative atmospheric humidity for 7 days. The extent of the rust fungus development on the leaves was then determined.

Puccinia recondita [2] = assay: Comparative Test 1: curative activity against brown rust of wheat; format: in vivo; conditions: curative spray 1 day after inoculation, wheat cultivar Kanzler, assessed after 7 days, comparison with Comp. 35 of EP-A 0 589301, untreated 90%
Protocol: as §1, §2
Comp. 35 of EP-A 0 589301 was compared to the compounds 67.1-67.14 according to the invention of table 67. Leaves of potted wheat seedlings of the cultivar “Kanzler” were inoculated with a spore suspension of brown rust (Puccinia recondita). The pots were then placed into a chamber with high atmospheric humidity (90-95%) at 20-22° C. for 24 hours. During this time, the spores germinated and the germ tubes penetrated into the leaf tissue. The next day, the infected plants were sprayed to runoff point with an aqueous suspension having the concentration of active compound stated below. The suspension or emulsion was prepared as described above. After the spray coating had dried on, the test plants were cultivated in a greenhouse at temperatures between 20 and 22° C. and at 65 to 70% relative atmospheric humidity for 7 days. The extent of the rust fungus development on the leaves was then determined.

Leptosphaeria nodorum = assay: Comparative Test 2: activity against leaf blotch on wheat; format: in vivo; conditions: protective spray 1 day before inoculation, wheat cultivar Kanzler, assessed after 8 days, untreated 80%
Protocol: as §1
Activity Against Leaf Blotch on Wheat Caused by Leptosphaeria nodorum
Comp. 35 of EP-A 0 589301 was compared to the compounds 67.1-67.14 according to the invention of table 67. Pots of wheat plants of the cultivar “Kanzler” was sprayed to runoff point with an aqueous suspension having the concentration of active compound stated below. The next day, the pots were inoculated with an aqueous spore suspension of Leptosphaeria nodorum (syn. Stagonospora nodorum, Septoria nodorum). The plants were then placed into a chamber at 20° C. and maximum atmospheric humidity. After 8 days, the leaf blotch on the untreated but infected control plants had developed to such an extent that the infection could be determined visually in %.

Pyrenophora teres = assay: Use Example 2b: activity against net blotch of barley, 1 day protective application; format: in vivo; conditions: protective spray 24 hours before inoculation, barley seedlings, assessed after 6 days, untreated 90%
Protocol: as §1
Activity Against Net Blotch of Barley Caused byPyrenophora teres, 1 day Protective Application
Leaves of potted barley seedlings were sprayed to runoff point with an aqueous suspension having the concentration of active compound stated below. 24 hours after the spray coating had dried on, the test plants were inoculated with an aqueous spore suspension of Pyrenophora [syn. Drechslera] teres, the net blotch pathogen. The test plants were then placed into a greenhouse at temperatures between 20 and 24° C. and 95 to 100% relative atmospheric humidity. After 6 days, the extent of the development of the disease was determined visually in % infection of the total leaf area.

SMILES	Infection at BOTRCI P1 at 250 ppm (%) (Botrytis cinerea)	Infection at PUCCRT K1 at 250 ppm (%) (Puccinia recondita [1])	Infection at PUCCRT K1 at 250 ppm (%) (Puccinia recondita [2])	Infection at LEPTNO P1 at 250 ppm (%) (Leptosphaeria nodorum)	Infection at PYRNTE P1 at 250 ppm (%) (Pyrenophora teres)	melting point [°C]
Cc1cc(-c2ccccc2NC(=O)c2cn(C)nc2C(F)F)ccc1Cl [Compound 67.9]	0	3	3	–	–	–
Cn1cc(C(=O)Nc2ccccc2-c2cc(F)ccc2F)c(C(F)F)n1 [Compound 67.6]	10	0	0	3	–	–
Cn1cc(C(=O)Nc2ccccc2-c2ccc(Cl)cc2Cl)c(C(F)F)n1 [Compound 67.5]	–	0	0	15	–	–
Cc1cc(F)ccc1-c1ccccc1NC(=O)c1cn(C)nc1C(F)F [Compound 67.10]	0	0	0	15	–	–
Cc1cc(Cl)ccc1-c1ccccc1NC(=O)c1cn(C)nc1C(F)F [Compound 67.8]	0	0	0	–	–	–
Cn1cc(C(=O)Nc2ccccc2-c2ccc(F)c(Cl)c2)c(C(F)F)n1 [Compound 67.2]	0	0	0	3	–	–
Cn1cc(C(=O)Nc2ccccc2-c2cc(Cl)cc(Cl)c2)c(C(F)F)n1 [Compound 67.1]	1	0	0	25	–	–
Cn1cc(C(=O)Nc2ccccc2-c2ccc(F)cc2F)c(C(F)F)n1 [Compound 67.13]	–	0	0	3	5	–
Cc1cc(-c2ccccc2NC(=O)c2cn(C)nc2C(F)F)ccc1F [Compound 67.11]	0	0	0	–	–	–
Cn1cc(C(=O)Nc2ccccc2-c2ccc(F)c(F)c2)c(C(F)F)n1 [Compound 67.3]	1	0	0	7	–	–
COc1ccc(-c2ccccc2NC(=O)c2cn(C)nc2C(F)F)c(C)c1 [Compound 67.14]	–	0	0	5	–	–
Cn1cc(C(=O)Nc2ccccc2-c2ccccc2)c(C(F)F)n1 [reference compound]	–	–	25	80	–	–
Cn1cc(C(=O)Nc2ccccc2-c2ccc(Cl)cc2F)c(C(F)F)n1 [Compound 67.7]	–	0	0	0	5	–
Cn1cc(C(=O)Nc2ccccc2-c2ccc(Cl)c(Cl)c2)c(C(F)F)n1 [Compound 67.4, 3-difluoromethyl-1-methyl-N-(ortho-(3,4-dichlorophenyl)phenyl)-pyrazole-4-carboxamide]	0	0	0	3	–	129 to 130
Cn1cc(C(=O)Nc2ccccc2-c2ccc(Cl)c(F)c2)c(C(F)F)n1 [Compound 67.12]	7	0	0	3	–	–

Source: patent publication US20080108686A1, “N-(Ortho-Phenyl)-1-Methyl-3-Difluoromethylpyrazole-4-Carboxanilides And Their Use As Fungicides” (BASF Aktiengesellschaft, priority 2004, published 2008)
